Values of other authors in publication PMC5516028, “Molecular tools for GABAA receptors: High affinity ligands for β1-containing subtypes” (Scientific Reports, 2017).
pEC50: −log10 of the molar value.

Key:
Set-up in all cases: method as in earlier work
Conditions in all cases: published data, ref 1 (Supplementary References), read-out: Approximate EC50; cited from earlier work
α5β1γ2 GABAA receptors = biological target: α5β1γ2 GABAA receptors
α1β3γ2 GABAA receptors = biological target: T1, α1β3γ2 GABAA receptors (Rattus norvegicus, UniProt P62813+P63079)
T1 construct: expressed in transfected cells; host or cells: Xenopus laevis oocytes, mRNA injected
T1 sequence (P62813 28-455): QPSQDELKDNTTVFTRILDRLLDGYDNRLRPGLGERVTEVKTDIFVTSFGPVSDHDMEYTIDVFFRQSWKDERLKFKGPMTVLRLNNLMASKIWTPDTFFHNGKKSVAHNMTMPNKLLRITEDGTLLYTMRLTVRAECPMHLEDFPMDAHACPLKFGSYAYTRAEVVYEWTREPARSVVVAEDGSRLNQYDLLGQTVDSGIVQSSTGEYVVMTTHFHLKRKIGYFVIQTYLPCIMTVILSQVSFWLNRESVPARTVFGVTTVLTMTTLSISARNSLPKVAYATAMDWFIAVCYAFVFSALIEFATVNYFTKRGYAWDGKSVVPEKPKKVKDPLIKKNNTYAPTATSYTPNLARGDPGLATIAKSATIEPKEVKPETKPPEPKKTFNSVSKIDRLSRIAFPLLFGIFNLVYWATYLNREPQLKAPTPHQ
T1 sequence (P63079 26-473): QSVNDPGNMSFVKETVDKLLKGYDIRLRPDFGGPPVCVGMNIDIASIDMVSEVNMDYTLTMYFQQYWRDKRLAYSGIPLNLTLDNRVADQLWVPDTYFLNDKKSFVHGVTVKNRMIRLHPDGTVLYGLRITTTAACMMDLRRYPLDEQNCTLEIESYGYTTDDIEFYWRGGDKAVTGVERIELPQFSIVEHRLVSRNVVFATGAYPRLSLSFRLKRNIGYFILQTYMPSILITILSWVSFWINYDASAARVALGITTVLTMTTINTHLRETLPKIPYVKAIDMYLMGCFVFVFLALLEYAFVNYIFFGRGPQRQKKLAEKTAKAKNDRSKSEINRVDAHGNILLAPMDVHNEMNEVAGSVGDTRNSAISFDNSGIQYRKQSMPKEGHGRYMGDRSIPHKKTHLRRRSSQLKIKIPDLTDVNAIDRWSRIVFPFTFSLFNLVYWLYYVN
T1 sequence (P18508 39-466 partner): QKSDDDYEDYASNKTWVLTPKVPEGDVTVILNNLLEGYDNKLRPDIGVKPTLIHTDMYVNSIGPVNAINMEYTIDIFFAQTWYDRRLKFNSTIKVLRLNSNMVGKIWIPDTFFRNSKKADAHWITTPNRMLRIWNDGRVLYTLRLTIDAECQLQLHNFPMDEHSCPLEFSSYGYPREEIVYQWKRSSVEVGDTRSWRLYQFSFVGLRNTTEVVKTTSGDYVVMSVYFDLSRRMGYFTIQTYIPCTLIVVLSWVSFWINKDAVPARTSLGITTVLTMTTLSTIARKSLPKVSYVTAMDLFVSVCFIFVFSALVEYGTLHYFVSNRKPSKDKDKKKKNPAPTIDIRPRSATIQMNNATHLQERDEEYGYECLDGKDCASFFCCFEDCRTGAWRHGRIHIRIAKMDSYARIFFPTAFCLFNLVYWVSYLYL

α3β3 GABAA receptors = biological target: T2, α3β3 GABAA receptors (Rattus norvegicus, UniProt P20236+P63079)
T2 construct: expressed in transfected cells; host or cells: Xenopus laevis oocytes, mRNA injected
T2 sequence (P20236 29-493): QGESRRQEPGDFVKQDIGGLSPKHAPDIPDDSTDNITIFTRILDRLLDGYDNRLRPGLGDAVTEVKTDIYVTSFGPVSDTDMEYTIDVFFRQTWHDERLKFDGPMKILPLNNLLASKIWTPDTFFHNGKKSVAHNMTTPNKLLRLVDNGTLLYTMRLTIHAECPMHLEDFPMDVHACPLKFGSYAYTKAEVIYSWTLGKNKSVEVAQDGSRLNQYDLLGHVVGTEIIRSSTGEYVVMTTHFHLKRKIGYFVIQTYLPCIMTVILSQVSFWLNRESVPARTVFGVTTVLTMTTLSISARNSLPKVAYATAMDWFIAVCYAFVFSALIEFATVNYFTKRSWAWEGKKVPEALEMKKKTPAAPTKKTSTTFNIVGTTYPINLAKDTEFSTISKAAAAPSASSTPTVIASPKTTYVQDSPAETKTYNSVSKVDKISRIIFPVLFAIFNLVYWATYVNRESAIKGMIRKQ
T2 sequence (P63079 26-473): as the sequence (P63079 26-473) above

α2β2γ2 GABAA receptors = biological target: α2β2γ2 GABAA receptors
α6β3γ2 GABAA receptors = biological target: T3, α6β3γ2 GABAA receptors (Rattus norvegicus, UniProt P30191+P63079)
T3 construct: expressed in transfected cells; host or cells: Xenopus laevis oocytes, mRNA injected
T3 sequence (P30191 20-453): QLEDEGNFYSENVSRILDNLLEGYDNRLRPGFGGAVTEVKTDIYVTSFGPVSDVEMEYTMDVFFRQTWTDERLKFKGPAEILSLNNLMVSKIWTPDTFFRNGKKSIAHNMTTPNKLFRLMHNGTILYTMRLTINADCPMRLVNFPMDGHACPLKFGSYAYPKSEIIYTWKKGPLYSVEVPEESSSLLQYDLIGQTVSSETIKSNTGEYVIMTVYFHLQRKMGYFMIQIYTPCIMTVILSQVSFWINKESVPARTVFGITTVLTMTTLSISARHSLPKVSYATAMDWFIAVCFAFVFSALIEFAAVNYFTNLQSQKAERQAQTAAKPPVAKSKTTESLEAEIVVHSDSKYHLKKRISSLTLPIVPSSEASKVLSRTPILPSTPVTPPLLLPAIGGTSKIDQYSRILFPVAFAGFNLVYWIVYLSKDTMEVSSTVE
T3 sequence (P63079 26-473): as the sequence (P63079 26-473) above
T3 sequence (P18508 39-466 partner): as the sequence (P18508 39-466 partner) above

α4β3γ2 GABAA receptors = biological target: T4, α4β3γ2 GABAA receptors (Rattus norvegicus, UniProt P28471+P63079)
T4 construct: expressed in transfected cells; host or cells: Xenopus laevis oocytes, mRNA injected
T4 sequence (P28471 36-552): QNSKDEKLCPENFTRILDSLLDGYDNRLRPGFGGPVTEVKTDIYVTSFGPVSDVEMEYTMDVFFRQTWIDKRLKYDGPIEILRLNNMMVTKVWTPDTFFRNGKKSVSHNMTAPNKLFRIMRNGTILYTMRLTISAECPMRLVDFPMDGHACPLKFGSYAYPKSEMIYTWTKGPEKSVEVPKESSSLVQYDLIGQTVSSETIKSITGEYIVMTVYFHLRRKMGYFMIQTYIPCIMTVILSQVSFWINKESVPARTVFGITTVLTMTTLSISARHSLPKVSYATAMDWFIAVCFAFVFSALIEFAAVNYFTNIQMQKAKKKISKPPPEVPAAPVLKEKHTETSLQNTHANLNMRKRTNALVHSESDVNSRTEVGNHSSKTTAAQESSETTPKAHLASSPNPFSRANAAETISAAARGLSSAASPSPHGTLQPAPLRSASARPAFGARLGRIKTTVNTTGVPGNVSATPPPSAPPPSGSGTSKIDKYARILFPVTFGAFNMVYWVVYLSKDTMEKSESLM
T4 sequence (P63079 26-473): as the sequence (P63079 26-473) above
T4 sequence (P18508 39-466 partner): as the sequence (P18508 39-466 partner) above

## COc1ccc(-n2nc3c4cc(Cl)ccc4[nH]cc-3c2=O)cc1 [Compound 1, 8-Chloro-2-(4-methoxyphenyl)-2H-pyrazolo[4,3-c]quinolin-3(5H)-one]
α5β1γ2 GABAA receptors
  pEC50: ~7.30
α1β3γ2 GABAA receptors
  pEC50: ~5.74
α3β3 GABAA receptors
  pEC50: ~5.74
α2β2γ2 GABAA receptors
  pEC50: ~5.46
α6β3γ2 GABAA receptors
  pEC50: ~5.48
α4β3γ2 GABAA receptors
  pEC50: ~6.05
